Test systems include ACHN renal; HOP-62 NSCLC; OVCAR-8 ovarian; RPMI-8226 leukemia; SF-268 CNS; SK-MEL-2 melanoma; SK-OV-3 ovarian; SNB-19 CNS; UACC-62 melanoma; UO-31 renal.
Holding throughout (assay): NCI anticancer screen, dose series, 48 h

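These data come from cells grown in 96-well plates and exposed to compound for 48 hours at five concentrations. At the GI50, growth is halved. At the TGI there is no net growth.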

Take `FC(F)(F)C1(Br)C(c2ccccc2)=C1c1ccccc1`: the TGI is 40.3 µM in the experiment with ACHN renal; 39.4 µM with HOP-62 NSCLC; 30.5 µM in the experiment on OVCAR-8 ovarian; above 100 µM in the experiment on RPMI-8226 leukemia; 43.9 µM in the experiment on SF-268 CNS; 30 µM in the experiment on SK-MEL-2 melanoma. For the same molecule, the TGI with SK-OV-3 ovarian was above 100 µM; in the experiment with SNB-19 CNS, 59.2 µM; with UACC-62 melanoma, 30.8 µM; in the experiment with UO-31 renal, 33.9 µM.

With `COC(=O)C(Cc1nc2ccccc2[nH]c1=O)C(=O)C(=O)Nc1ccc([N+](=O)[O-])cc1[N+](=O)[O-]` (stereo not given), the TGI in the experiment with ACHN renal amounted to 33.3 µM; in the experiment with HOP-62 NSCLC it was 45.4 µM; in the experiment on OVCAR-8 ovarian it was 52.6 µM; in the experiment on RPMI-8226 leukemia it was 85.1 µM; in the experiment with SF-268 CNS it was 47.7 µM; with SK-MEL-2 melanoma, 69 µM. In addition, the TGI with SK-OV-3 ovarian was 64.6 µM; with SNB-19 CNS, above 100 µM; with UACC-62 melanoma it was 38.9 µM; in the experiment with UO-31 renal, 43.6 µM.

As for `CC1(CCC(=O)OC2CCCCC2)OCCO1`, the TGI with ACHN renal, with HOP-62 NSCLC, in the experiment on OVCAR-8 ovarian, in the experiment with RPMI-8226 leukemia, in the experiment on SF-268 CNS and in the experiment on SK-MEL-2 melanoma was above 100 µM each time. Also, the TGI in the experiment with SK-OV-3 ovarian, in the experiment with SNB-19 CNS, with UACC-62 melanoma and in the experiment with UO-31 renal was above 100 µM throughout.

For `O=[N+]([O-])CCc1cccc([N+](=O)[O-])c1`, the TGI in the experiment with ACHN renal, in the experiment on HOP-62 NSCLC, with OVCAR-8 ovarian, in the experiment on RPMI-8226 leukemia, in the experiment on SF-268 CNS and with SK-MEL-2 melanoma was above 100 µM each time. In addition, the TGI in the experiment with SNB-19 CNS, in the experiment with UACC-62 melanoma and in the experiment on UO-31 renal was above 100 µM throughout.

As to `CCN(CC)CCCNC(=O)c1c2c(n3ccccc13)C(=O)c1ncccc1C2=O`, the GI50 was 0.395 µM with ACHN renal; 0.586 µM with HOP-62 NSCLC; 0.486 µM with OVCAR-8 ovarian; 3.21 µM with RPMI-8226 leukemia; 1.11 µM in the experiment with SF-268 CNS; 1.7 µM in the experiment with SK-MEL-2 melanoma. For the same molecule, the GI50 in the experiment on SK-OV-3 ovarian was 1.59 µM; with SNB-19 CNS, 1.09 µM; in the experiment with UACC-62 melanoma, 0.472 µM; in the experiment with UO-31 renal it was 1.59 µM. Moreover, the TGI in the experiment with ACHN renal is 3.16 µM; in the experiment on HOP-62 NSCLC, 2.78 µM; in the experiment with OVCAR-8 ovarian, 2.07 µM; in the experiment with RPMI-8226 leukemia, above 100 µM; in the experiment on SF-268 CNS, 7.09 µM; in the experiment with SK-MEL-2 melanoma it was 3.89 µM. The TGI turned out to be 5.65 µM in the experiment on SK-OV-3 ovarian, 2.67 µM in the experiment on SNB-19 CNS, 2.21 µM in the experiment on UACC-62 melanoma and 5.07 µM with UO-31 renal.

As for `C[N+](C)(C)CC(=O)N/N=C(\C(=O)NC1=C(Cl)C(=O)c2ccccc2C1=O)C(C#N)c1csc(-c2ccc([N+](=O)[O-])cc2)n1` (stereo not given), the TGI with ACHN renal, in the experiment with HOP-62 NSCLC, in the experiment on OVCAR-8 ovarian, with RPMI-8226 leukemia, with SF-268 CNS and in the experiment with SK-MEL-2 melanoma was above 100 µM in each case. Further, the TGI with SK-OV-3 ovarian, in the experiment on SNB-19 CNS, in the experiment on UACC-62 melanoma and with UO-31 renal was above 100 µM in each case.

As to `O=C(Nc1cccc(O)c1)C(=O)C(C(=O)c1ccc(Cl)c(Cl)c1)C1OC(=O)c2ccccc21` (stereo not given), the TGI with ACHN renal is 29.7 µM; with OVCAR-8 ovarian it was 37.8 µM; in the experiment on RPMI-8226 leukemia, 54.5 µM; in the experiment on SF-268 CNS, 33.7 µM; with SK-MEL-2 melanoma, 63.9 µM; with SK-OV-3 ovarian, 51.1 µM. Besides, the values for the TGI in the experiment with SNB-19 CNS, in the experiment on UACC-62 melanoma and in the experiment with UO-31 renal were 37.8 µM, 31.8 µM and 27.1 µM, respectively.

In the case of `COc1cccc(/C=C/C(=O)c2ccc(Cl)cc2Cl)c1`, the GI50 in the experiment with ACHN renal was 14.3 µM; in the experiment with OVCAR-8 ovarian, 9.46 µM; with RPMI-8226 leukemia it was 1.1 µM; in the experiment with SF-268 CNS, 11.2 µM; with SK-MEL-2 melanoma it was 20.3 µM; in the experiment on SNB-19 CNS, 8.07 µM. Besides, the figures for the GI50 with UACC-62 melanoma and in the experiment with UO-31 renal were 8.06 µM and 17.4 µM, respectively. For the same molecule, the TGI in the experiment on ACHN renal was 39.2 µM; in the experiment on OVCAR-8 ovarian, 22.7 µM; with RPMI-8226 leukemia, 3.86 µM; with SF-268 CNS, 27.4 µM; in the experiment with SK-MEL-2 melanoma, above 50 µM; in the experiment with SNB-19 CNS, 16.8 µM. Further, the TGI is 15.5 µM in the experiment on UACC-62 melanoma and above 50 µM in the experiment on UO-31 renal.

Turning to `CN/N=C(\C)C(CN(C)C)C(c1ccccc1)c1c(O)c2ccccc2oc1=O` (stereo not given), the TGI in the experiment with ACHN renal, in the experiment with HOP-62 NSCLC, in the experiment on OVCAR-8 ovarian, in the experiment on RPMI-8226 leukemia, with SF-268 CNS and in the experiment on SK-MEL-2 melanoma was above 100 µM in each case. Also, the TGI in the experiment on SNB-19 CNS, in the experiment with UACC-62 melanoma and in the experiment with UO-31 renal was above 100 µM throughout.

As to `CCCN(CCCC(NC(C)=O)C(=O)NCc1ccccc1)C(=O)NCCCl` (stereo not given), the TGI in the experiment on ACHN renal, in the experiment on HOP-62 NSCLC, in the experiment with OVCAR-8 ovarian, with RPMI-8226 leukemia, in the experiment on SF-268 CNS and in the experiment on SK-MEL-2 melanoma was above 100 µM each time. Also, the TGI with SNB-19 CNS, with UACC-62 melanoma and in the experiment on UO-31 renal was above 100 µM throughout.

As to `Cc1cn2c(/C=N/N=C(N)N)c(-c3cccs3)nc2s1`, the GI50 with ACHN renal was 2.12 µM; with OVCAR-8 ovarian, 13.2 µM; in the experiment with RPMI-8226 leukemia, 1.48 µM; with SF-268 CNS, 12.9 µM; with SK-MEL-2 melanoma it was 28.8 µM; in the experiment with SK-OV-3 ovarian, 17.5 µM. Also, the GI50 with SNB-19 CNS is 11.9 µM; in the experiment on UACC-62 melanoma it was 1.64 µM; with UO-31 renal it was 16.6 µM. The TGI is 5 µM in the experiment with ACHN renal; 36 µM with OVCAR-8 ovarian; 3.5 µM with RPMI-8226 leukemia; 36.6 µM with SF-268 CNS; above 100 µM in the experiment on SK-MEL-2 melanoma; 37.6 µM with SK-OV-3 ovarian. Moreover, the figures for the TGI in the experiment on SNB-19 CNS, in the experiment on UACC-62 melanoma and with UO-31 renal were 35.8 µM, 3.12 µM and 38.9 µM, respectively.
